Laboratory results published in patent US20260306460A1, “COMPOSITION FOR REMOVING AND INHIBITING SENESCENT CELLS, AND USES THEREOF” (LIFECEUTIX CO., LTD., priority 2023, published 2026).

Experiments:
naturally aged mice = experiment: Open field test in naturally aged mice, Example 15; format: in vivo, mouse; details: untreated aged = 100%; 5 days; doses as p16 mRNA
Experimental: In the same manner as in Example 7-1 of WO2023-085787 A1, naturally aged mice were administered LX-405 (5% DMSO in PBS solution, 10 mg/kg, intraperitoneal administration), LX-801 (PBS, 100 mg/kg, intraperitoneal administration), LX-1102 (0.5% CMC-Na solution, 100 mg/kg, oral administration), LX-1801 (PBS, 50 mg/kg, intraperitoneal administration), LX-2101 (0.5% CMC-Na solution, 10 mg/kg, intraperitoneal administration), and LX-3403 (mouse anti-PD-1 antibody (BioXcell), 100 μg, intraperitoneal administration) for 5 days under the following conditions. The control group was administered only the solution in the same volume. After drug administration was completed, the method described in each Example below was performed. The mouse was sacrificed in the same manner as Example 7-2 and 7-6 of WO2023-085787 A1. Total RNA was extracted from liver tissue, and qRT-PCR was performed and analyzed using synthesized cDNA. […] The mRNA amounts of p16, MMP3, and IL6 after natural aging were induced were calculated as 100% and compared them with the mRNA amounts of p16, MMP3, and IL6 after treatment with the test compound. Furthermore, an open field test was performed to analyze aging-related frailty in mice using the same method as Example 7-7 of WO2023-085787 A1. […] The amount of activity evaluated after inducing aging was calculated as 100% and compared it with the amount of activity evaluated after treatment with the test compound.

senescent human cells = experiment: Viability of doxorubicin-induced senescent human cells (CellTiter-Glo), Example 11; format: cell-based
Experimental: Cells in which senescence was induced by treatment with doxorubicin were treated with the test compound at designated concentrations and measured using the CellTiter-Glo Luminescent Cell Viability Assay (Promega).
After 3 days, cell viability was measured using CellTiter-Glo Luminescent Cell Viability Assay (Promega) or light microscopy.

[1] = test system: doxorubicin-induced aged C57BL6J mice; experiment: Thrombosis (Serpine1, Plau, TIMP1 mRNA, tail bleeding time) in doxorubicin-aged mice, Example 22-10, Table 39; format: in vivo, mouse; details: for Plau mRNA / Serpine1 mRNA / TIMP1 mRNA: qRT-PCR, doxorubicin-induced aged mice, amount after aging calculated as 100%; for Tail amputation bleeding time: tail incised 5 mm from the tip, saline 37° C., untreated 51 (±3.6)
Experimental: (§1) Eight-week-old male C57BL6J mice (KRIBB Laboratory Animal Resource Center) were acclimated to the experimental environment for one week. Afterwards, the anticancer agent doxorubicin was administered intraperitoneally at a concentration of 10 mg/kg, inducing aging for more than 10 days. The aging-induced mice were randomly assigned to experimental and control groups. LX-403 was mixed with a 10% ethanol solution of PEG400 and administered orally at a concentration of 25 mg/kg or intradermally at a concentration of 1 μM for 21 days. LX-1801 was mixed in distilled water with 4% DMSO, 30% PEG300, and 5% Tween80 and administered intradermally at a concentration of 0.4 μM daily for 21 days. LX-2001 was mixed in PBS and administered intradermally at a concentration of 2 μM daily for 21 days. LX-2002 was mixed in distilled water with 4% DMSO, 30% PEG300, and 5% Tween80 and administered intradermally at a concentration of 2 μM daily for 21 days. […] LX-2005 was mixed in distilled water with 4% DMSO, 30% PEG300, and 5% Tween80 and administered intradermally at a concentration of 90 μM daily for 21 days. LX-2007 was mixed in distilled water with 4% DMSO, 30% PEG300, and 5% Tween80 and administered intradermally at a concentration of 90 μM daily for 21 days. […] LX-3002 was mixed in distilled water with 4% DMSO, 30% PEG300, and 5% Tween80 and administered orally at a concentration of 10 mg/kg daily for 21 days. […] LX-5411 was mixed in 5% phosphate-buffered saline (PBS) and administered orally at a concentration of 10 mg/kg daily for 21 days or intradermally at a concentration of 3 μM. LX-5701 was mixed in PBS and administered orally at a concentration of 360 mg/kg daily for 21 days. LX-6807 was mixed in saline and administered intraperitoneally at a concentration of 1 mg/kg daily for 21 days. The control group received only the solution in the same volume. After the end of drug administration, the methods described in each example below were performed.
Using cDNA synthesized using the same method as in Example 7-6 of WO2023-085787 A1, qRT-PCR was performed and analyzed for the liver-produced senescence-associated secretory factor (SASP) and hemostasis-related factors like Serpine1 (PAI1), Plau (Urokinase), and TIMP1. To determine whether the treatment affects in vivo hemostasis, tail bleeding time was analyzed in mice induced to age by chemotherapy. Specifically, for tail bleeding analysis, mice were anesthetized, and the tail was incised 5 mm from the tip with a razor blade. The bleeding tail was then placed in a 15 ml test tube containing saline preheated to 37° C., and the time until blood flow stopped was measured. The bleeding time was determined when bleeding stopped for 10 seconds. […] The qPT-PCR results were compared with the amounts of each factor after aging was induced, calculating the amount of each factor as 100% and then treating it with the test compound.

[2] = test system: doxorubicin-induced aged C57BL6J mice; experiment: Fatigue, weakness and weight loss in doxorubicin-aged mice, Example 22-7, Table 36; format: in vivo, mouse; details: for Grip Sterenght Test Strength / Open Field Test Time in Center / Wire Hanging Test Time: amount after aging calculated as 100%; for Mean Body Weight: untreated 20.8 (±1.7)
Experimental: Eight-week-old male C57BL6J mice (KRIBB Laboratory Animal Resource Center) were acclimated to the experimental environment for one week. […] The aging-induced mice were randomly assigned to experimental and control groups. […] The control group received only the solution in the same volume. After the end of drug administration, the methods described in each example below were performed.
The amount of each evaluation after aging was calculated as 100% and compared with the amount of each evaluation after test compound treatment.

[3] = test system: doxorubicin-induced aged C57BL6J mice; experiment: Bone marrow function (CAFC assay) in doxorubicin-aged mice, Example 22-12, Table 41; format: in vivo, mouse; details: bone marrow of doxorubicin-induced aged mice, 5 weeks of culture; untreated 1.8 (±0.1)
Experimental: as §1
Damage to the immune system, including the bone marrow, after chemotherapy is known to induce inflammatory responses and contribute to drug resistance and adverse effects. To analyze the function of bone marrow hematopoietic cells in mice induced to age by the anticancer agent, a cobblestone-area-forming-cell (CAFC) assay was performed. Specifically, bone marrow cells (BMCs) were collected from the femurs and tibias of mice, and BM-MNCs (mono-nuclear cells) were cultured in MethoCult™ GF M3434 methylcellulose medium (Stem Cell™ Technologies Inc, Canada). FBMD-1 stromal cells were seeded in each well of a 96-well plate to prepare a support cell stromal layer. […] After 5 weeks of culture, CAFCs were counted using an optical microscope.

[4] = test system: doxorubicin-induced aged C57BL6J mice; experiment: Kidney damage (urea, creatinine, Agtr1a mRNA) in doxorubicin-aged mice, Example 22-9, Table 38; format: in vivo, mouse; details: amount after aging calculated as 100%; for Creatinine / Urea: serum
Experimental: as §1
The amounts of urea and creatinine, markers of kidney damage, were measured spectrophotometrically in serum collected from mice using the same method as in Examples 7-8 of WO2023-085787 A1. […] The amount of each factor after aging was calculated as 100% and compared with the amount of each factor after treatment with the test compound.

senescent A549 cells = experiment: Viability of senescent A549 cells (CellTiter-Glo), Example 18, Table 15; details: Homo sapiens, A549, read-out: Survival (%)
Experimental: Senescence-induced cancer cells treated with doxorubicin were treated with the test compound at designated concentrations, and cell viability was measured using the CellTiter-Glo Luminescent Cell Viability Assay (Promega).

| Compound | Open Field Test Time in Center (naturally aged mice) | Plau mRNA [1] | Serpine1 mRNA [1] | TIMP1 mRNA [1] | Tail amputation bleeding time [1] | Grip Sterenght Test Strength [2] | Wire Hanging Test Time [2] | Mean Body Weight [2] | CAFCs/10^5 BMCs [3] | Agtr1a mRNA [4] | Creatinine [4] | Urea [4] | viability at 1.1 µM (senescent A549 cells) [%] | viability at 10 µM (senescent A549 cells) [%] | other results |
| --- | --- | --- | --- | --- | --- | --- | --- | --- | --- | --- | --- | --- | --- | --- | --- |
| COC(=O)c1ccc([C@H]2c3[nH]c4ccccc4c3C[C@H](C(=O)OC)N2C(=O)CCl)cc1 [LX-405] | 201.5 (±18.3) % |  |  |  |  |  |  |  |  |  |  |  |  |  | induced death of cells (senescent human cells; senescent foreskin cells, 30 μM, 3 days): induced the death of most cells |
| S=C(N/N=C1\CCCc2cccnc21)N1CCN(c2ccccn2)CC1 [LX-801] | 241.8 (±17.9) % |  |  |  |  |  |  |  |  |  |  |  |  |  | Survival (senescent human cells; 1.1 μM, 0 μM = 100): 50.5%; Survival (senescent human cells; 10 μM, 0 μM = 100): 28.2%; Survival (senescent human cells; […], 0 μM = 100): 48.9% |
| C[C@@H]1CC[C@@]23C[C@H](O)C(=O)[C@@]2(O)[C@]1(C)[C@H](OC(=O)CCl)C[C@@H](C1=CCn2c(=O)n(-c4ccccc4)c(=O)n2C1)[C@@H]3C [LX-1801, (2S,3aS,4S,5R,7R,8S,8aS,11R)-7-(1,3-Dioxo-2-phenyl-2,3,5,8-tetrahydro-1H-[1,2,4]triazolo[1,2-a]pyridazin-6-yl)-2,3a-dihydroxy-4,8,11-trimethyl-3-oxooctahydro-1H-4,8a-propanoazulen-5-yl 2-Chloroacetate] | 252.9 (±28) % |  |  |  |  |  |  |  |  |  |  |  |  |  |  |
| C[C@H]1[C@H](C)CC[C@]2(C(=O)O)CC[C@]3(C)C(=CC[C@@H]4[C@@]5(C)CC[C@H](O)C(C)(C)[C@@H]5CC[C@]43C)[C@H]12 [LX-2001, Ursolic acid] |  |  |  |  |  |  |  |  |  |  |  |  |  |  | viability at […] (senescent human cells; Homo sapiens, 3.3 μM, 0 μM = 100, read-out: Survival): 0.8% |
| CC1(C)CC[C@]2(NC(=O)C(C)(F)F)CC[C@]3(C)[C@H](C(=O)C=C4[C@@]5(C)C=C(C#N)C(=O)C(C)(C)[C@@H]5CC[C@]43C)[C@@H]2C1 [LX-2101, Omaveloxolone] | 215.3 (±30.8) % |  |  |  |  |  |  |  |  |  |  |  |  |  |  |
| CCCC\C=C/C=C/C=C\CCCCCCCC(=O)O [LX-2707, Punicic acid] |  | 65 (±1.8) % | 52 (±3.5) % | 46 (±1.5) % | 80 (±4.3) sec | 128 (±5.7) % | 192 (±12.7) % | 22.4 (±2.1) g | 2.7 (±0.2) CAFCs/10^5 BMCs | 62 (±3.8) % | 75 (±5.3) % | 80 (±3.3) % |  |  | Open Field Test Time in Center [2]: 232 (±33.6) % |
| COC(=O)[C@H]1Cc2c([nH]c3ccccc23)[C@H](c2ccc(S(C)(=O)=O)cc2)N1C(=O)CCl [LX-5401, methyl (1S,3R)-2-(2-chloroacetyl)-1-(4-(methylsulfonyl)phenyl)-2,3,4,9-tetrahydro-1H-pyrido[3,4-b]indole-3-carboxylate] |  |  |  |  |  |  |  |  |  |  |  |  | 92.7 | 43.8 | viability at 30 µM (senescent A549 cells): 1.9% |
| C#CC(=O)N1[C@@H](CCCC)Cc2cc(OC)ccc2[C@@H]1c1ccc(NC23CC4CC(CC(C4)C2)C3)cc1 [LX-5411] |  |  |  |  |  |  |  |  |  |  |  |  | 75.4 | 5.3 |  |
| O=C1C2CCN(CC2)C1CNC(=O)C(F)(F)F (stereo not drawn) [LX-5701] |  | 53 (±13.9) % | 45 (±20.1) % | 53 (±11.2) % | 89 (±15.2) sec | 117 (±6.9) % | 139 (±8.2) % | 23.0 (±2.8) g | 3.3 (±0.2) CAFCs/10^5 BMCs | 60 (±10.4) % | 80 (±5.0) % | 75 (±5.9) % | 82.3 | 43.8 | viability at 30 µM (senescent A549 cells): 16.2%; Open Field Test Time in Center [2]: 192 (±24.3) % |
| Cc1cccc([C@H](C)c2cnc[nH]2)c1C [LX-6807, Dexmedetomidine] |  | 45 (±3.6) % | 31 (±1.9) % | 59 (±1.9) % | 93 (±6.4) sec | 137 (±6.3) % | 209 (±14.5) % | 23.2 (±2.7) g | 3.5 (±0.2) CAFCs/10^5 BMCs | 43 (±3.0) % | 73 (±2.7) % | 72 (±5.8) % | 94.1 | 76.5 | viability at 30 µM (senescent A549 cells): 6.6%; Open Field Test Time in Center [2]: 249 (±34.1) % |
| Tocofersolan [LX-3001] |  | 69 (±2.2) % | 76 (±2.1) % | 73 (±3.1) % | 72 (±2.6) sec | 120 (±9.3) % | 127 (±13.3) % | 21.2 (±1.3) g | 2.1 (±0.2) CAFCs/10^5 BMCs | 70 (±5.8) % | 85 (±4.4) % | 76 (±2.8) % |  |  | Survival (senescent human cells; 1.1 μM, 0 μM = 100): 74.8%; Survival (senescent human cells; […], 0 μM = 100): 1.1% |
